Experimental findings from BindingDB's records for doi:10.1016/j.bmc.2005.12.063 (Kyushu Institute of Technology, 2006) are described below.

Peptide text beside a SMILES is read from it. A value given as a limit tells only on which side of the number the result lay.

Experiment in all cases: HDAC Enzyme Activity Assay
Common to all, as to conditions: pH 8; 37 °C

For one assay, the target named is Histone deacetylase 1 (Homo sapiens, UniProt Q13547).
For a further assay, the target named is Histone deacetylase 4 (Homo sapiens, UniProt P56524).
In a further assay the target is T1, Histone deacetylase 6 (Mus musculus, UniProt Q9Z2V5).
T1 sequence (Q9Z2V5 whole entry): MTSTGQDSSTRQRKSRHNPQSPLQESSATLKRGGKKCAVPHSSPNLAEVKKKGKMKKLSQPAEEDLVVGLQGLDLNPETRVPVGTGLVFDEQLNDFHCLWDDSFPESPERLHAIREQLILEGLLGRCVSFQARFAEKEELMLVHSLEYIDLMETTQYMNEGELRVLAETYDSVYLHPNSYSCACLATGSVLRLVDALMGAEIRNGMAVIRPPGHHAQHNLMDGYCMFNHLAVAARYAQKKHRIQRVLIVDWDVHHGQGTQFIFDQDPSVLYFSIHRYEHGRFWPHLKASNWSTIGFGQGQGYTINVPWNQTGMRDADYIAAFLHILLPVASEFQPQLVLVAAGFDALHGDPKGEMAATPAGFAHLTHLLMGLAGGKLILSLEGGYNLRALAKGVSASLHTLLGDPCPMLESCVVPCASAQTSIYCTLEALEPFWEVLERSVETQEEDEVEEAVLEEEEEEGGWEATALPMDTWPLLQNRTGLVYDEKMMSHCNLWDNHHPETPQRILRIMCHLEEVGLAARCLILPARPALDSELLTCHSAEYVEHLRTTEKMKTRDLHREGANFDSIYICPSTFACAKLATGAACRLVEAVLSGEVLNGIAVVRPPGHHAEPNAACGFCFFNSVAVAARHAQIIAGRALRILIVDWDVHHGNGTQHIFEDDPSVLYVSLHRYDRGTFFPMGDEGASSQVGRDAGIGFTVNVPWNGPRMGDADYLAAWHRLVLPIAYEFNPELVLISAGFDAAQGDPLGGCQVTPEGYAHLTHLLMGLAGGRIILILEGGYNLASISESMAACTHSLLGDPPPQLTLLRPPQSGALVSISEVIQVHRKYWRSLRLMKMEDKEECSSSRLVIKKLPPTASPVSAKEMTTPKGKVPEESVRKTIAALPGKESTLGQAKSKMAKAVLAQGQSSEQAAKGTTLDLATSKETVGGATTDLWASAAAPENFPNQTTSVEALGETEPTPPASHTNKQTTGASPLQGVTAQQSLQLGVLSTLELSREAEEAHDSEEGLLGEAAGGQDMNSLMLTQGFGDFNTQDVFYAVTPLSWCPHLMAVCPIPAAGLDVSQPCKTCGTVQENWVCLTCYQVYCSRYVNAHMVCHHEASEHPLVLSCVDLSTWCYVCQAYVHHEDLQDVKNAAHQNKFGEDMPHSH

Chain of Histone deacetylase 4 (P56524 whole entry): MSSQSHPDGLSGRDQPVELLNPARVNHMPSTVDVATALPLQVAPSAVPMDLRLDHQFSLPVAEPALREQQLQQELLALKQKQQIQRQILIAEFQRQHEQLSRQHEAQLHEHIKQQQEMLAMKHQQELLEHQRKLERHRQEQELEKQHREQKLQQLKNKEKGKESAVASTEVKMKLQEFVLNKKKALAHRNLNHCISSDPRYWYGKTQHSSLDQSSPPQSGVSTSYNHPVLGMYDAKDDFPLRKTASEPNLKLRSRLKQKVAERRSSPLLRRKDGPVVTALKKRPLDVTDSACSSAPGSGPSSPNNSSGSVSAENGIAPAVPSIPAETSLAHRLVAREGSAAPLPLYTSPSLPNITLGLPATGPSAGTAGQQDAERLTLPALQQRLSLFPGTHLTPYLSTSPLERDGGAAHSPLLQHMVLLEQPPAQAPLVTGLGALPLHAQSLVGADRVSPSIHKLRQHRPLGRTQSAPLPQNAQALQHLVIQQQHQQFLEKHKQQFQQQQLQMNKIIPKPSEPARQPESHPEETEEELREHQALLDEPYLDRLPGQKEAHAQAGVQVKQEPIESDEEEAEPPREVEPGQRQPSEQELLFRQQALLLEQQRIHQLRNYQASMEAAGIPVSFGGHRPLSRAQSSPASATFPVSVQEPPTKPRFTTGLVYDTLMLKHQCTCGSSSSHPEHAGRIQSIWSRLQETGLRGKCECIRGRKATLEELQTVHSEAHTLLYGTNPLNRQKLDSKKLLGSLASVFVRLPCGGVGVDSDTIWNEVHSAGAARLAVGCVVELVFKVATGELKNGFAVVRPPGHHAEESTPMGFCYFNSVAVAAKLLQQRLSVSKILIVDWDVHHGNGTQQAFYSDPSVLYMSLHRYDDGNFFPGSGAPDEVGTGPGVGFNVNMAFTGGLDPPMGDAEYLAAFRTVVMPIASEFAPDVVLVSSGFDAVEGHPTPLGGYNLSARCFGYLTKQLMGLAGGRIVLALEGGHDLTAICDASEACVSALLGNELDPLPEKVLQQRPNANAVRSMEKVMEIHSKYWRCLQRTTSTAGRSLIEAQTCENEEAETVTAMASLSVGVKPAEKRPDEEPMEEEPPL
Chain of Histone deacetylase 1 (Q13547 whole entry): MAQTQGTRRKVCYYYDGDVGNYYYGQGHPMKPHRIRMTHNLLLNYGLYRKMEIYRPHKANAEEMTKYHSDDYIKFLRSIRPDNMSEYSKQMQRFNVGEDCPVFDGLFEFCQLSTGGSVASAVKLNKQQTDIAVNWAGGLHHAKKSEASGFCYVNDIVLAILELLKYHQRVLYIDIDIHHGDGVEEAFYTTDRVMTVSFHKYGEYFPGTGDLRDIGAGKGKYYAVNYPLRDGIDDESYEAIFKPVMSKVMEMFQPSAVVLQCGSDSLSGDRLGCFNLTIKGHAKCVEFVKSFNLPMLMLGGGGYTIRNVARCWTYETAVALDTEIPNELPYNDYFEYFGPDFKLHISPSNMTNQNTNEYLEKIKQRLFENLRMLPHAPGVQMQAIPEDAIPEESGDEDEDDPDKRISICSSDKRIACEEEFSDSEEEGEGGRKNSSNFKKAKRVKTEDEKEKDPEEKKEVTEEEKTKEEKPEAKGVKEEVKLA

As for `CC1(C)NC(=O)[C@H](CCCCCC(=O)CO)NC(=O)[C@H]2CCCN2C(=O)[C@H](Cc2ccccc2)NC1=O` [(3S,9S,14aR)-9-benzyl-3-(7-hydroxy-6-oxoheptyl)-6,6-dimethyl-tetradecahydropyrrolo[1,2-a][,,,]cyclododecane-1,4,7,10-tetrone], the results for the IC50 at Histone deacetylase 1, against Histone deacetylase 4 and against Histone deacetylase 6 were 0.223 µM, 0.0604 µM and 0.887 µM, respectively.

In the case of `CC(=O)CCCCC[C@@H]1NC(=O)[C@H]2CCCN2C(=O)[C@H](Cc2ccccc2)NC(=O)C(C)(C)NC1=O` [(3S,9S,14aR)-9-benzyl-6,6-dimethyl-3-(6-oxoheptyl)-tetradecahydropyrrolo[1,2-a][,,,]cyclododecane-1,4,7,10-tetrone], the IC50 – broadly, the concentration needed to halve the response being measured – on Histone deacetylase 1 was determined as 1.08 µM; against Histone deacetylase 4, 0.29 µM; at Histone deacetylase 6, 3.7 µM.

With `CC1(C)NC(=O)[C@H](CCCCCC2CO2)NC(=O)[C@H]2CCCN2C(=O)[C@H](Cc2ccccc2)NC1=O` (stereo partly drawn) [(3S,9S,14aR)-9-benzyl-6,6-dimethyl-3-[5-(oxiran-2-yl)pentyl]-tetradecahydropyrrolo[1,2-a][,,,]cyclododecane-1,4,7,10-tetrone], the IC50 against Histone deacetylase 1 was 4.69 µM; against Histone deacetylase 4 it was 4.05 µM; against Histone deacetylase 6 it was greater than 100 µM.

Consider `CC1(C)NC(=O)[C@H](CCCCCC=O)NC(=O)[C@H]2CCCN2C(=O)[C@H](Cc2ccccc2)NC1=O` [6-[(3S,9S,14aR)-9-benzyl-6,6-dimethyl-1,4,7,10-tetraoxo-tetradecahydropyrrolo[1,2-a][,,,]cyclododecan-3-yl]hexanal], for which the values for the IC50 against Histone deacetylase 1, against Histone deacetylase 4 and on Histone deacetylase 6 were 4.33 µM, 1.29 µM and 14.1 µM, respectively.

Regarding `CC1(C)NC(=O)[C@H](CCCCCC(O)CO)NC(=O)[C@H]2CCCN2C(=O)[C@H](Cc2ccccc2)NC1=O` (stereo partly drawn) [(3S,9S,14aR)-9-benzyl-3-(6,7-dihydroxyheptyl)-6,6-dimethyl-tetradecahydropyrrolo[1,2-a][,,,]cyclododecane-1,4,7,10-tetrone], the IC50 at Histone deacetylase 1, at Histone deacetylase 4 and against Histone deacetylase 6 was greater than 100 µM throughout.

As for `CC1(C)NC(=O)[C@H](CCCCCC(=O)CBr)NC(=O)[C@H]2CCCN2C(=O)[C@H](Cc2ccccc2)NC1=O` [(3S,9S,14aR)-9-benzyl-3-(7-bromo-6-oxoheptyl)-6,6-dimethyl-tetradecahydropyrrolo[1,2-a][,,,]cyclododecane-1,4,7,10-tetrone], at Histone deacetylase 4, half-maximal inhibition (IC50) required 0.0595 µM.

As for `C=CCCCCC[C@@H]1NC(=O)[C@H]2CCCN2C(=O)[C@H](Cc2ccccc2)NC(=O)C(C)(C)NC1=O` [(3S,9S,14aR)-9-benzyl-3-(hept-6-en-1-yl)-6,6-dimethyl-tetradecahydropyrrolo[1,2-a][,,,]cyclododecane-1,4,7,10-tetrone] (HELM PEPTIDE1{[Aib].F.[dP].[C=CCCCCC[C@H](N[*:1])C(=O)[*:2]]}$PEPTIDE1,PEPTIDE1,1:R1-4:R2$$$V2.0), the IC50 at Histone deacetylase 1, on Histone deacetylase 4 and at Histone deacetylase 6 was greater than 100 µM throughout.
